In publication PMC8778022, “Synthesis and Biological Activity of 3-(Heteroaryl)quinolin-2(1H)-ones Bis-Heterocycles as Potential Inhibitors of the Protein Folding Machinery Hsp90” (Molecules, 2022):
“Also recorded” adds a separate entry of the source.

Legend:
Format in all cases: cell-based, human
MDA-MB-231 cells = test: MTS cell viability assay, MDA-MB-231 cells, 72 h; conditions: % of viable cells compared to untreated cells 100%; for viability at 10 µM / viability at 15 µM / viability at 25 µM: Homo sapiens, MDA-MB-231, 72 h
Experimental: (§1) Upon completion of their syntheses, the in vitro activity of quinolone derivatives 3a–f, 4a–h, and 5a,b was evaluated by their growth-inhibitory potency in three cancer cell lines. At first, the viability of the synthesized compounds was examined with the MDA-MB-231 […] breast cancer cell line at concentrations of 10 µM, 15 µM, and 25 µM. Prostate cancer PC-3 cells and human fetal lung fibroblast MRC-5 cell lines were also subjected to this series of compounds at a unique concentration of 15 µM.
(§2) MDA-MB-231 cells were grown in L15 supplemented with 15% serum, 2 mM glutamine, and 22 mM sodium bicarbonate in the presence of Penicillin/Streptomycin antibiotic mixture. PC-3 cells were cultured in RPMI 1640 supplemented with 10% serum and 2 mM glutamine in the presence of Penicillin/Streptomycin antibiotic mixture. MRC-5 cells were cultured in EMEM supplemented with 10% serum and 2 mM glutamine in the presence of Penicillin/Streptomycin antibiotic mixture (Reagents were purchased from Sigma Aldrich, Saint-Quentin-Fallavier, France).
(§3) Cells were treated for 72 h with 10, 15, and 25 µM of the selected substances. Control cells were treated with the equivalent in DMSO.
(§4) Cell survival was assessed using the CellTiter Aqueous One Proliferation assay (Promega, Charbonnières-les-Bains, France) whereby 2500 or 5000 cells per well were seeded in 96-well plates in 100 µL. At the end of the treatment, 20 µL of reagent was added, and absorbance readings were taken at 492 nm on a 96-well plate reader after 3 h of contact (on average).

PC-3 cells = test: MTS cell viability / growth inhibition assay, PC-3 cells, 72 h; conditions: for GI50: PC-3, concentration needed to reduce cell growth by 50%, 72 h treatment, estimated, read-out: GI50 anti-proliferative effect PC-3; for Cell viability [%] PC-3 (15 µM) / viability at 15 µM: 72 h, MTS, % of viable cells compared to untreated cells 100%; for viability at 15 µM: PC-3, 72 h
Experimental: as §1
Then, the growth inhibitory activities against PC-3 prostate cancer cell line were measured for the selected 3-heteroaryl-quinolin-2(1H)-one derivatives 3a–e.
as §2, §3, §4

[1] = MTS cell viability assay, MRC-5 cells, 72 h; conditions: human, MRC-5 fetal lung fibroblast cells, % of viable cells compared to untreated cells 100%
Experimental: as §1, §2, §3, §4

Hsp70 = test: Western blot of Hsp70 level in PC-3 cells; conditions: 15 µM, 72 h, without triggering the HSR
Experimental: (§5) For protein expression analysis, cells were seeded at a rate of 0.75 × 10^6 cells on a 25 cm^2 surface. At the end of the treatment the cells were washed and lysed with RIPA buffer (Sigma Aldrich, Saint-Quentin-Fallavier, France city, country) to which protease inhibitors (Sigma Aldrich, Saint-Quentin-Fallavier, France SIGMA) were added. After 30 min of lysis on ice, the samples were centrifuged (3500 rpm, 10 min) and stored at −20 °C. Total protein concentration was obtained using the Bio-rad Protein Assay reagent (Bio-Rad Laboratories, Marnes-la-Coquette, France city, country). […] Immunorevelation was performed as follows: 1 h saturation of the membrane with TBS-Tween (0.1%)–5% skim milk followed by overnight incubation in primary antibody solution (antibodies were from Santa Cruz Biotechnologies, Clinisciences, Nanterre, France or from Sigma Aldrich, Saint-Quentin-Fallavier, France)(See Table 3). After 1 h of washing in 0.1% TBS-Tween, the membranes were contacted with the second horseradish peroxidase-coupled antibody. Detection of the chemiluminescence signal (SuperSignal Pierce reagent, Fisher Scientific, Illkirch, France) was performed using the ChemiBis gel Imager (DNR Bio-Imaging Systems, Israel).
(§6) Figure 2 Effects of quinolone analogues 3a–e, 4e and 5b on HSP90 machinery protein levels and on CDK-4 stability. PC-3 cells were grown and exposed to Hsp90 inhibitors (3a–e, 4e and 5b, 15 µM) as described in Experimental section for 72 h and cell lysates were analyzed by Western blotting with regard to the levels of CDK-4, Hsp90α/β and Hsp70. NT corresponds to untreated cells; D, DMSO-treated cells were used as controls, GADPH level is used for control in protein loading on gels.

Hsp90α/β = test: Western blot of Hsp90 level in PC-3 cells; conditions: 15 µM, 72 h, without triggering the HSR
Experimental: as §5, §6

CDK-4 = test: Western blot of Hsp90 client protein CDK-4 in PC-3 cells; conditions: for CDK-4 client protein level (Western blot): PC-3 cells, 15 µM, 72 h; for CDK-4 client protein level: as printed in abstract and conclusions
Experimental: as §5, §6

## COc1ccc(C(=O)Nc2cc3cc(Br)ccc3n(C)c2=O)cc1 [C00017, reference compound]
MDA-MB-231 cells; 10 µM
  viability at 10 µM: 76%

## Cn1c(=O)c(-c2nc3ccccc3s2)cc2ccccc21 [3c]
PC-3 cells; Homo sapiens
  GI50: 37 µM

## COc1ccc(Cn2c(-c3cc4ccccc4n(C)c3=O)nc3cc(C)c(C)cc32)cc1 [C00002]
MDA-MB-231 cells; 25 µM
  Cell viability [%] MDA-MB-231: 23%
MDA-MB-231 cells; 10 µM
  viability at 10 µM: 60%
MDA-MB-231 cells
  viability at 15 µM: 60%
[1]
  viability at 72 h, 15 µM: 95%
PC-3 cells
  Cell viability [%] PC-3 (15 µM): 61%

## COc1cc(-c2ncnc3c2nc(-c2cc4ccccc4n(C)c2=O)n3Cc2ccccc2)cc(OC)c1OC [C00010]
MDA-MB-231 cells; 10 µM
  viability at 10 µM: 60%
MDA-MB-231 cells
  viability at 15 µM: 47%
MDA-MB-231 cells; 25 µM
  viability at 25 µM: 55%
PC-3 cells; Homo sapiens
  viability at 15 µM: 89%

## Cn1c(=O)c(-c2nc3ccccc3s2)cc2ccccc21 [C00003]
MDA-MB-231 cells; 10 µM
  viability at 10 µM: 55%
MDA-MB-231 cells
  viability at 15 µM: 72%
MDA-MB-231 cells; 25 µM
  viability at 25 µM: 65%
[1]
  viability at 72 h, 15 µM: 88%
PC-3 cells; Homo sapiens
  viability at 15 µM: 61%

## Cn1c(=O)c(-c2cc3ccccc3s2)cc2ccccc21 [C00006]
MDA-MB-231 cells; 10 µM
  viability at 10 µM: 98%

## COc1cc(-c2ncnc3c2nc(-c2cc4ccccc4n(C)c2=O)n3Cc2ccccc2)cc(OC)c1OC [4d, 3-[9-benzyl-6-(3,4,5-trimethoxyphenyl)-9H-purin-8-yl]-1-methylquinolin-2(1H)-one]
[1]
  viability at 72 h, 15 µM: 71 to 79%

## COc1ccc(-c2ncnc3c2nc(-c2cc4ccccc4n(C)c2=O)n3Cc2ccccc2)cc1 [C00007]
MDA-MB-231 cells; 10 µM
  viability at 10 µM: 66%
MDA-MB-231 cells
  viability at 15 µM: 81%
MDA-MB-231 cells; 25 µM
  viability at 25 µM: 87%
[1]
  viability at 72 h, 15 µM: 94%
PC-3 cells; Homo sapiens
  viability at 15 µM: 73%

## COc1cc(Nc2ncnc3c2nc(-c2cc4ccccc4n(C)c2=O)n3Cc2ccccc2)cc(OC)c1OC [C00016]
MDA-MB-231 cells; 10 µM
  viability at 10 µM: 44%
MDA-MB-231 cells
  viability at 15 µM: 55%
MDA-MB-231 cells; 25 µM
  viability at 25 µM: 61%
[1]
  viability at 72 h, 15 µM: 81%
PC-3 cells; Homo sapiens
  viability at 15 µM: 88%

## COc1cccc(-c2ncnc3c2nc(-c2cc4ccccc4n(C)c2=O)n3Cc2ccccc2)c1 [C00008]
MDA-MB-231 cells; 10 µM
  viability at 10 µM: 70%
MDA-MB-231 cells
  viability at 15 µM: 69%
MDA-MB-231 cells; 25 µM
  viability at 25 µM: 61%
[1]
  viability at 72 h, 15 µM: 92%
PC-3 cells; Homo sapiens
  viability at 15 µM: 106%

## COc1cc(Nc2ncnc3c2nc(-c2cc4ccccc4n(C)c2=O)n3Cc2ccccc2)cc(OC)c1OC [5b, 3-{9-benzyl-6-[(3,4,5-trimethoxyphenyl)amino]-9H-purin-8-yl}-1-methylquinolin-2(1H)-one]
Hsp70
  Hsp70 level (heat shock response): stabilize
Hsp90α/β
  Hsp90 level (heat shock response): stabilize
CDK-4
  CDK-4 client protein level (Western blot): degraded

## COc1ccc(Nc2ncnc3c2nc(-c2cc4ccccc4n(C)c2=O)n3Cc2ccccc2)cc1 [C00015]
MDA-MB-231 cells; 10 µM
  Cell viability [%] MDA-MB-231: 62%
MDA-MB-231 cells
  viability at 15 µM: 63%
MDA-MB-231 cells; 25 µM
  viability at 25 µM: 69%
[1]
  viability at 72 h, 15 µM: 91%
PC-3 cells; Homo sapiens
  viability at 15 µM: 87%

## Cn1c(=O)c(-c2nc3c(-c4cccc5ccccc45)ncnc3n2Cc2ccccc2)cc2ccccc21 [C00012]
MDA-MB-231 cells; 10 µM
  viability at 10 µM: 73%
MDA-MB-231 cells
  viability at 15 µM: 81%
MDA-MB-231 cells; 25 µM
  viability at 25 µM: 92%
[1]
  viability at 72 h, 15 µM: 98%
PC-3 cells; Homo sapiens
  viability at 15 µM: 88%

## Cn1c(=O)c(-c2nc3ccccc3o2)cc2ccccc21 [C00004]
MDA-MB-231 cells; 10 µM
  viability at 10 µM: 98%
MDA-MB-231 cells
  viability at 15 µM: 98%
MDA-MB-231 cells; 25 µM
  viability at 25 µM: 98%

## COc1ccc(Nc2ncnc3c2nc(-c2cc4ccccc4n(C)c2=O)n3Cc2ccccc2)cc1 [5a, 3-{9-benzyl-6-[(4-methoxyphenyl)amino]-9H-purin-8-yl}-1-methylquinolin-2(1H)-one]
MDA-MB-231 cells; 10 µM
  viability at 10 µM: < 47%

## Cn1c(=O)c(-c2nc3c(-c4ccc(F)cc4)ncnc3n2Cc2ccccc2)cc2ccccc21 [C00014]
MDA-MB-231 cells; 25 µM
  Cell viability [%] MDA-MB-231: 17%
MDA-MB-231 cells; 10 µM
  viability at 10 µM: 55%
MDA-MB-231 cells
  viability at 15 µM: 42%
[1]
  viability at 72 h, 15 µM: 84%
PC-3 cells; Homo sapiens
  viability at 15 µM: 97%

## Cc1cc(C)cc(-c2ncnc3c2nc(-c2cc4ccccc4n(C)c2=O)n3Cc2ccccc2)c1 [4e, 3-[9-benzyl-6-(3,5-dimethylphenyl)-9H-purin-8-yl]-1-methylquinolin-2(1H)-one]
Hsp70
  Hsp70 level (heat shock response): stabilize
[1]
  viability at 72 h, 15 µM: 71 to 79%
Hsp90α/β
  Hsp90 level (heat shock response): stabilize
CDK-4
  CDK-4 client protein level (Western blot): degraded; also recorded: more decreased
  CDK-4 client protein level: significant decrease
PC-3 cells; Homo sapiens
  viability at 15 µM: ≥ 56%

## CSc1ncnc2c1nc(-c1cc3ccccc3n(C)c1=O)n2Cc1ccccc1 [3e, 3-(6-Methylthiopurine)-2-quinolone]
PC-3 cells; Homo sapiens
  viability at 15 µM: ≥ 56%
  GI50: 38 µM

## Cn1c(=O)c(-c2nc3c(-c4ccc(F)cc4)ncnc3n2Cc2ccccc2)cc2ccccc21 [4h, 3-[9-benzyl-6-(4-fluorophenyl)-9H-purin-8-yl]-1-methylquinolin-2(1H)-one]
MDA-MB-231 cells; 25 µM
  viability at 25 µM: ~30%

## Cn1c(=O)c(-c2nc3c(-c4ccccc4)ncnc3n2Cc2ccccc2)cc2ccccc21 [C00009]
MDA-MB-231 cells; 10 µM
  viability at 10 µM: 71%
MDA-MB-231 cells
  viability at 15 µM: 62%
MDA-MB-231 cells; 25 µM
  viability at 25 µM: 35%
[1]
  viability at 72 h, 15 µM: 82%
PC-3 cells; Homo sapiens
  viability at 15 µM: 97%

## O=c1c(-c2nc3ccccc3n2Cc2ccccc2)cc2ccccc2n1Cc1ccccc1 [C00001]
MDA-MB-231 cells; 25 µM
  Cell viability [%] MDA-MB-231: 36%
MDA-MB-231 cells
  viability at 15 µM: 47%
[1]
  viability at 72 h, 15 µM: 80%
PC-3 cells; Homo sapiens
  viability at 15 µM: 70%

## O=c1c(-c2nc3ccccc3n2Cc2ccccc2)cc2ccccc2n1Cc1ccccc1 [3a]
MDA-MB-231 cells; 10 µM
  viability at 10 µM: < 47%
MDA-MB-231 cells; 25 µM
  viability at 25 µM: ~30%
PC-3 cells; Homo sapiens
  GI50: 48 µM

## CSc1ncnc2c1nc(-c1cc3ccccc3n(C)c1=O)n2Cc1ccccc1 [C00005]
MDA-MB-231 cells; 10 µM
  viability at 10 µM: 73%
MDA-MB-231 cells
  viability at 15 µM: 70%
MDA-MB-231 cells; 25 µM
  viability at 25 µM: 50%
[1]
  viability at 72 h, 15 µM: 88%
PC-3 cells
  Cell viability [%] PC-3 (15 µM): 61%

## COc1ccc(Cn2c(-c3cc4ccccc4n(C)c3=O)nc3cc(C)c(C)cc32)cc1 [3b]
Hsp70
  Hsp70 level (heat shock response): stabilize
MDA-MB-231 cells; 25 µM
  viability at 25 µM: ~30%
Hsp90α/β
  Hsp90 level (heat shock response): stabilize
CDK-4
  CDK-4 client protein level (Western blot): more decreased
  CDK-4 client protein level: significant decrease
PC-3 cells; Homo sapiens
  viability at 15 µM: ≥ 56%
  GI50: 28 µM
PC-3 cells; Homo sapiens, as printed in abstract and b26, refers to Table 2 (PC-3, 72 h), read-out: IC50 anti-proliferative activity
  IC50: 28 µM
